# Structures can show the parent of a compound that is named as a salt. Where two headings read alike, the source gives them in different places.
# Experiments:
# [1] = molecular target: T1, SARS-CoV-2 PLpro (nsp3 1564–1878) (Severe acute respiratory syndrome coronavirus 2, UniProt P0DTD1); test: biochemical; design: FRET-quenched peptide (Pro3) cleavage by PLpro, 10 min pre-incubation, slope over 20 min, normalised to no-compound control; details: high concentration screen, read-out: % of control remaining
# [2] = molecular target: T1, SARS-CoV-2 PLpro (nsp3 1564–1878); test: biochemical; design: FRET-quenched peptide (Pro3) cleavage by PLpro, 10 min pre-incubation, slope over 20 min, normalised to no-compound control; details: low concentration screen, read-out: % of control remaining
smiles,measurement,setting,value
COc1ccc(CNCc2cccc3ccccc23)cc1 [ML133 HCl],remaining activity at 3.75 µM,[1]; Well no.=4793,96.1%
same,remaining activity at 1.25 µM,[2]; Well no.=4793,97.9%
C[C@H](NC(=O)CNC(=O)c1cccc(Cl)c1)c1ccccc1 [JNJ-63533054],remaining activity at 3.75 µM,[1]; Well no.=8047,102%
same,remaining activity at 1.25 µM,[2]; Well no.=8047,98.3%
CCOc1ccc(Cc2cc([C@@H]3O[C@H](CO)[C@@H](O)[C@H](O)[C@H]3O)ccc2Cl)cc1 [Dapagliflozin],remaining activity at 3.75 µM,[1]; Well no.=5291,95.8%
same,remaining activity at 1.25 µM,[2]; Well no.=5291,93.4%
C[N+](C)(C)CCOP(=O)([O-])OC[C@H](O)CO [sn-Glycero-3-phosphocholine],remaining activity at 3.75 µM,[1]; Well no.=7303,106%
same,remaining activity at 1.25 µM,[2]; Well no.=7303,106%
CCCS(=O)(=O)Nc1ccc(F)c(C(=O)c2c[nH]c3ncc(Cl)cc23)c1F [PLX4720],remaining activity at 3.75 µM,[1]; Well no.=2795,99.9%
same,remaining activity at 1.25 µM,[2]; Well no.=2795,97.5%
CO[C@H]1O[C@@H]2O[C@@]3(C)CC[C@H]4[C@H](C)CC[C@@H]([C@H]1C)[C@@]24OO3 [Artemether (SM-224)],remaining activity at 3.75 µM,[1]; Well no.=5188,97.4%
same,remaining activity at 1.25 µM,[2]; Well no.=5188,94.9%
C=CCc1ccc(O)c(OC)c1 [Eugenol],remaining activity at 3.75 µM,[1]; Well no.=4005,96.7%
same,remaining activity at 1.25 µM,[2]; Well no.=4005,92.8%
O=C(O)Cc1ccccc1 [Sodium Phenylacetate],remaining activity at 3.75 µM,[1]; Well no.=1884,97.8%
same,remaining activity at 1.25 µM,[2]; Well no.=1884,94.7%
COc1cc2ncnc(Oc3cccc(NC(=O)Nc4cc(C(C)(C)C(F)(F)F)on4)c3)c2cc1OC [CEP-32496],remaining activity at 3.75 µM,[1]; Well no.=5362,96.8%
same,remaining activity at 1.25 µM,[2]; Well no.=5362,100%
"C[C@H](c1ccc(F)cc1CCCC(=O)O)N(c1cc(F)ccc1F)S(=O)(=O)c1ccc(Cl)cc1 [4-[2-((1R)-1-{[(4-chlorophenyl)sulfonyl]-2,5-difluoroanilino}ethyl)-5-fluorophenyl]butanoic acid]",remaining activity at 3.75 µM,[1]; Well no.=5465,102%
same,remaining activity at 1.25 µM,[2]; Well no.=5465,98.3%
COc1ccc(C2=N[C@@H](c3ccc(Cl)cc3)[C@@H](c3ccc(Cl)cc3)N2C(=O)N2CCNC(=O)C2)c(OC(C)C)c1 [Nutlin (3)],remaining activity at 3.75 µM,[1]; Well no.=6356,101%
same,remaining activity at 3.75 µM,[1]; Well no.=7836,99.3%
same,remaining activity at 1.25 µM,[2]; Well no.=6356,98.9%
same,remaining activity at 1.25 µM,[2]; Well no.=7836,103%
Cc1cc(/N=N/c2ccc(S(=O)(=O)Nc3ccccn3)cc2)c(N)cc1O [MS436],remaining activity at 3.75 µM,[1]; Well no.=7590,96.8%
same,remaining activity at 1.25 µM,[2]; Well no.=7590,93.3%
O=C(O)c1cc(=O)[nH]c(=O)[nH]1 [Orotic acid],remaining activity at 3.75 µM,[1]; Well no.=6207,99.7%
same,remaining activity at 1.25 µM,[2]; Well no.=6207,108%
CCCCC/C=C\C/C=C\CCCCCCCC(=O)O [Linoleic acid],remaining activity at 3.75 µM,[1]; Well no.=4349,101%
same,remaining activity at 3.75 µM,[1]; Well no.=7029,85.7%
same,remaining activity at 1.25 µM,[2]; Well no.=4349,103%
same,remaining activity at 1.25 µM,[2]; Well no.=7029,94.8%
CN(NC(=O)CC(=O)NN(C)C(=S)c1ccccc1)C(=S)c1ccccc1 [Elesclomol],remaining activity at 3.75 µM,[1]; Well no.=5001,107%
same,remaining activity at 3.75 µM,[1]; Well no.=6406,111%
same,remaining activity at 1.25 µM,[2]; Well no.=5001,104%
same,remaining activity at 1.25 µM,[2]; Well no.=6406,102%
O=C(O)C1CCCCN1 (stereo not drawn) [Pipecolic acid],remaining activity at 3.75 µM,[1]; Well no.=6929,102%
same,remaining activity at 1.25 µM,[2]; Well no.=6929,103%
CN[C@@H]1C[C@@H](c2ccc(Cl)c(Cl)c2)c2ccccc21 [Indatraline hydrochloride],remaining activity at 3.75 µM,[1]; Well no.=969,106%
same,remaining activity at 1.25 µM,[2]; Well no.=969,106%
CC[C@@H](N)C(=O)O [D(-)-2-Aminobutyric acid],remaining activity at 3.75 µM,[1]; Well no.=7701,92.5%
same,remaining activity at 1.25 µM,[2]; Well no.=7701,97.2%
COc1cc(OCc2cccc(-c3ccccc3)c2C)cc(OC)c1CN1CCCC[C@H]1C(=O)O [BMS-1],remaining activity at 3.75 µM,[1]; Well no.=7780,96.2%
same,remaining activity at 3.75 µM,[1]; Well no.=8163,100%
same,remaining activity at 1.25 µM,[2]; Well no.=7780,98.8%
same,remaining activity at 1.25 µM,[2]; Well no.=8163,105%
Cc1ccccc1N1CCN(CCc2nnc3n2CCCC3)CC1 [Dapiprazole (hydrochloride)],remaining activity at 3.75 µM,[1]; Well no.=6895,100%
same,remaining activity at 1.25 µM,[2]; Well no.=6895,97.8%
Oc1cccc(O)c1O [Pyrogallol],remaining activity at 3.75 µM,[1]; Well no.=6975,105%
same,remaining activity at 1.25 µM,[2]; Well no.=6975,104%
O=C(c1ccc(OCCCc2c[nH]cn2)cc1)C1CC1 [Ciproxifan],remaining activity at 3.75 µM,[1]; Well no.=5316,97%
same,remaining activity at 1.25 µM,[2]; Well no.=5316,101%
NC(=O)c1ccc(OCC(O)CN2CC=C(c3ccc(F)cc3)CC2)cc1 (stereo not drawn) [Ro 8-4304],remaining activity at 3.75 µM,[1]; Well no.=1160,99.3%
same,remaining activity at 1.25 µM,[2]; Well no.=1160,98.3%
CN1CC(=O)NC1=O [N-Methylhydantoin],remaining activity at 3.75 µM,[1]; Well no.=6395,98.5%
same,remaining activity at 1.25 µM,[2]; Well no.=6395,95.6%
O=S(=O)(NCCSSCCNS(=O)(=O)c1cc(Cl)ccc1Cl)c1cc(Cl)ccc1Cl [KC7F2],remaining activity at 3.75 µM,[1]; Well no.=8580,102%
same,remaining activity at 1.25 µM,[2]; Well no.=8580,107%
COc1ccccc1OCCNCC(O)COc1cccc2[nH]c3ccccc3c12 (stereo not drawn) [Carvedilol],remaining activity at 3.75 µM,[1]; Well no.=1569,103%
same,remaining activity at 3.75 µM,[1]; Well no.=4051,104%
same,remaining activity at 3.75 µM,[1]; Well no.=6702,97.8%
same,remaining activity at 1.25 µM,[2]; Well no.=1569,99.6%
same,remaining activity at 1.25 µM,[2]; Well no.=4051,103%
same,remaining activity at 1.25 µM,[2]; Well no.=6702,97.7%
C[C@@]1(C2CCCC2)Cc2cc(OCC(=O)O)c(Cl)c(Cl)c2C1=O [R(+)-IAA-94],remaining activity at 3.75 µM,[1]; Well no.=921,105%
same,remaining activity at 1.25 µM,[2]; Well no.=921,104%
O=C(NNC(=O)c1ccc(CNS(=O)(=O)c2ccc(F)c(Cl)c2)cc1)c1ccccc1 [TCN-201],remaining activity at 3.75 µM,[1]; Well no.=5514,97.4%
same,remaining activity at 1.25 µM,[2]; Well no.=5514,96.4%
COc1cc(N)c(Cl)cc1C(=O)OCCN1CCCCC1 [ML 10302],remaining activity at 3.75 µM,[1]; Well no.=5486,100%
same,remaining activity at 1.25 µM,[2]; Well no.=5486,98.8%
CC1(C)O[C@@H]2C[C@H]3[C@@H]4CCC5=CC(=O)C=C[C@]5(C)[C@@]4(F)[C@@H](O)C[C@]3(C)[C@]2(C(=O)CO)O1 [Triamcinolone (acetonide)],remaining activity at 3.75 µM,[1]; Well no.=6574,108%
same,remaining activity at 1.25 µM,[2]; Well no.=6574,105%
O=C1O[C@]2(CC[C@H](C(=O)Nc3ccn(-c4ccccc4F)n3)CC2)c2cnccc21 [MK-0557],remaining activity at 3.75 µM,[1]; Well no.=6987,104%
same,remaining activity at 1.25 µM,[2]; Well no.=6987,104%
Cn1cc(-c2[nH]c3cc(NC(=O)[C@H](N)C4CCCCC4)cc4c3c2C=NNC4=O)cn1 [PF-477736],remaining activity at 3.75 µM,[1]; Well no.=4836,101%
same,remaining activity at 1.25 µM,[2]; Well no.=4836,99.5%
Cc1cnc(CNC(=O)c2c(=O)c3ccc(N4CCCN(C)CC4)nc3n3c2sc2ccccc23)cn1 [CX-5461],remaining activity at 3.75 µM,[1]; Well no.=5340,102%
same,remaining activity at 1.25 µM,[2]; Well no.=5340,99.1%
